According to US12472185B2, “Methods for killing antibiotic tolerant bacteria” (THE PENN STATE RESEARCH FOUNDATION, priority 2020, dated 2025):

What was measured:
[1] = tested on: human cancer HT-29 cells; experiment: Viability (CCK-8) and cytotoxicity (LDH) assays; assay type: cell-based; details: 24 hr
Method: FIG. 11. Cytotoxicity of NPIMA with HT-29 cells. (A) Cell viability was measured via a CCK-8 assay. (B) Cytotoxicity was measured with various concentrations of NPIMA […] for 24 h. Cell viability was measured at 450 nm, and cell toxicity was measured at 492 nm and a reference wavelength ([…]) was used.
(§1) For bacterial viability, cells were washed twice with 0.85% NaCl, resuspended in 1×PBS, and cell counts were determined via the drop assay (Donegan, Matyac, Seidler, & Porteous, 1991). For human cell viability, pre-cultured human cancer HT-29 cells were dispensed in 98 μl in 96-well plates with approximately 5,000 cells/well. NPIMA was added (2 μl) to produce concentrations of 5, 10, 100, and 200 μM. For controls, Triton X-100 (positive control) and DMSO (negative solvent control), were used, and the medium was used for background. Plates were incubated in a humidified incubator (37° C., 5% CO2) for 24 hr. Cell viability was determined via a cell counting kit (CCK-8 Kit, ab228554; Abcam), and cytotoxicity was determined via the lactate dehydrogenase (LDH) assay (LDH Assay Kit, MK401; Takara).

[2] = tested on: natural E. coli persister cells; experiment: Survival of naturally-occurring persister cells (ampicillin only); assay type: cell-based, Escherichia coli; details: NPIMA, compared with rifampicin-generated persisters
Method: FIG. 9. NPIMA kills naturally-occurring E. coli persister cells. Survival of E. coli with 5-iodoindole and solvent negative control (DMSO) also shown. Asterisk (*) indicates no viable cells were detected. The persister cells were harvested at stationary-phase of E. coli (turbidity of 6.0 at 600 nm) and non-persister cells were removed by treatment.
(§2) E. coli persister cells were prepared following our previous method (Kim, Yamasaki, et al., 2018; Kwan, Valenta, Benedik, & Wood, 2013). Exponentially-growing cells (turbidity of 0.8 at 600 nm) were treated with rifampicin (100 μg/ml for 30 min) to stop transcription, washed, and any remaining nonpersister cells were lysed by ampicillin in LB (100 μg/ml for 3 hr). Cells were harvested by centrifugation (17,000 g for 1 min) and washed with 1× phosphate-buffered saline buffer (PBS, 8 g NaCl, 0.2 g KCl, 1.15 g Na2HPO4, and 0.2 g KH2PO4 per 1,000 ml) twice to remove all possible carbon sources, then resuspended with 1×PBS. […]
(§3) For bacterial viability, cells were washed twice with 0.85% NaCl, resuspended in 1×PBS, and cell counts were determined via the drop assay (Donegan, Matyac, Seidler, & Porteous, 1991). […] Cell viability was determined via a cell counting kit (CCK-8 Kit, ab228554; Abcam), and cytotoxicity was determined via the lactate dehydrogenase (LDH) assay (LDH Assay Kit, MK401; Takara).

[3] = tested on: S. aureus; experiment: LIVE/DEAD staining; assay type: cell-based, Staphylococcus aureus; details: 100 μM, 1 hr
Method: FIG. 4. NPIMA lyses Escherichia coli, Pseudomonas aeruginosa, and Staphylococcus aureus. LIVE/DEAD staining of (a) E. coli BW25113 after 0.75 hr, (b) P. aeruginosa PA14 after 1 hr, and (c) S. aureus after 1 hr treatment with NPIMA at 100 μM. […] White arrows indicate lysed cells. Representative images are shown. Scale bar=[…]. NPIMA, 5-nitro-3-phenyl-1H-indol-2-ylmethylamine hydrochloride.
Cell viability after treating with NPIMA was determined using the using the LIVE/DEAD BacLight Bacterial Viability Kit (catalog number, L7012; Molecular Probes, Inc., Eugene, OR). The fluorescence signal was analyzed via a Zeiss Axioscope.A1 using excitation at 485 nm and emission at 530 nm for green fluorescence and using excitation at 485 nm and emission at 630 nm for red fluorescence.

[4] = tested on: P. aeruginosa PA14 exponential cells; experiment: Survival of exponentially-growing cells (drop assay); assay type: cell-based, Pseudomonas aeruginosa; details: 100 μM
Method: (§4) FIG. 2. NPIMA eradicates Escherichia coli, Pseudomonas aeruginosa, and Staphylococcus aureus exponential cells. Survival after 6 hr for (a) E. coli BW25113 with NPIMA and 5-iodoindole at 100 μM, (b) P. aeruginosa PA14 with NPIMA and 5-iodoindole at 100 μM, and (c) S. aureus with NPIMA and 5-iodoindole at 200 μM. Asterisk indicates no viable cells detected. NPIMA, 5-nitro-3-phenyl-1H-indol-2-yl-methylamine hydrochloride.
as §1

[5] = tested on: P. aeruginosa PA14 persister cells; experiment: Survival of persister cells (CCCP/ciprofloxacin generated); assay type: cell-based, Pseudomonas aeruginosa; details: 100 μM
Method: FIG. 3. NPIMA kills Escherichia coli, Pseudomonas aeruginosa, persister cells. Survival of (a) E. coli BW25113 and (b) P. aeruginosa PA14 after treatment with NPIMA (100 μM), 5-iodoindole (5-II, 100 μM), and DMSO for 6 hr. Asterisk indicates no viable cells detected. DMSO, dimethyl sulfoxide; NPIMA, 5-nitro-3-phenyl-1H-indol-2-yl-methylamine hydrochloride.
as §2, §3

[6] = tested on: E. coli BW25113 exponential cells; experiment: Survival of exponentially-growing cells (drop assay); assay type: cell-based, Escherichia coli
Method: as §4
FIG. 8. NPIMA structure function relationships. Exponential cells of Escherichia coli BW25113 were treated with (a) 2-(aminomethyl) indole, and (b) 2-methyl-5-nitro-3-phenyl-1H-indole for 6 hr. NPIMA, 5-nitro-3-phenyl-1Hindol-2-yl-methylamine hydrochloride.
as §1

[7] = tested on: S. aureus cells; experiment: Survival of cells (drop assay); assay type: cell-based, Staphylococcus aureus; details: 200 μM
Method: as §4, §1

[8] = tested on: E. coli BW25113; experiment: Transmission electron microscopy (TEM); assay type: cell-based, Escherichia coli; details: 100 μM
Method: FIG. 6. NPIMA damages the Escherichia coli cell membrane. Transmission electron microscopic (TEM) images of E. coli BW25113 after NPIMA (100 μM) treatment for 40 min. Two representative images are shown. The arrow indicates membrane damage. NPIMA, 5-nitro-3-phenyl-1H-indol-2-ylmethylamine hydrochloride.
For transmission electron microscopy (TEM), E. coli BW25113 was grown to a turbidity of 0.8 at OD600, contacted with NPIMA at 100 μM for 0.75 hr in PBS, centrifuged at 8000 g, and resuspended in PBS. The samples were fixed with buffer (2.5% glutaraldehyde in 0.1M cacodylate buffer, pH 7.4) and negative stained with 2% uranyl acetate in the dark for 1 hr, then dehydrated. The sectioned specimens were stained again with uranyl acetate and lead citrate after dehydration and resin embedded. TEM images were obtained using a JEOL JEM 1200 EXII instrument.

SMILES: Cl.NCc1[nH]c2ccc([N+](=O)[O-])cc2c1-c1ccccc1 [NPIMA, [(5-nitro-3-phenyl-1H-indol-2-yl)methyl]amine hydrochloride]
- toxicity (LDH and CCK-8) ([1]; 5 μM): not toxic
- toxicity (LDH and CCK-8) ([1]; 10 μM): not toxic
- concentrations showing toxicity in both tests [1]: ≥ 50 µM
- killing of natural persisters (ampicillin treatment only) [2]: killed in an identical manner
- cells killed (LIVE/DEAD) [3]: 27%
- time to eradicate exponentially-growing P. aeruginosa PA14 cells [4]: 6 h
- time to eradicate P. aeruginosa persister cells [5]: 3 h
- time to eradicate exponentially-growing E. coli ([6]; 100 μM (1 MIC)): ≤ 3 h
- killing of exponential E. coli cells ([6]; 100 μM, 6 hr): eradicated
- time to eradicate S. aureus cells [7]: 3 h
- cell envelope damage by TEM [8]: clear cell envelope damage
